Data on 15 compounds can be found in patent publication US5175166A, “Muscarinic agonists” (The University of Toledo, priority 1991, dated 1992).

Structures can show the parent of a compound that is named as a salt. A value given as a limit tells only on which side of the number the result lay.

In experiment [1] the target is muscarinic receptors. The experiment can be described thus: Binding to muscarinic receptors, competition with [3H]-QNB (rat brain membranes). The conditions noted are these: for IC50: 50 pM [3H]-QNB, rat brain membranes, pH 7.4, 2.0 hr room temperature, mean of three experiments; for binding to muscarinic receptors (in words): qualitative statement.
The target of experiment [2] is muscarinic receptors. Description: Binding, competition with 3H-oxotremorine M (3H-OXO-M), agonist binding (rat brain membranes). Conditions: 3 nM 3H-oxotremorine M, 15 minutes room temperature, mean of three experiments. The method, then:
(§1) Other binding was determined indirectly by the ability of compounds to compete with 1 nM ^3 H-pirenzepine (^3 H--PZ), or 3 nM ^3 H-oxotremorine M (^3 H--OXO--M) in a suspension of brain membranes. Each sample contained approximately 0.1 mg/ml protein for ^3 H--OXO--M in 20 mM Tris-Cl buffer with 1 mM MnCl2 and varying concentrations of compound in a final volume of […]. Samples were incubated 1 hr. for ^3 H--PZ, and 15 minutes for ^3 H--OXO--M at room temperature and then filtered through glass fiber filters using a Brandell cell harvester adapted for receptor binding work and the filters were washed twice with two 5-ml portions of cold buffer. Nonspecific binding was evaluated by the inclusion of excess atropine in a separate set of samples. IC50 values were determined from Hill plots of the inhibition data and are reported as means of three independent experiments each performed in triplicate.
(§2) Rats were killed by cervical dislocation and their brains rapidly removed. Tissue was homogenized in 9 vol. (w/v) of a 40 mM sodium-potassium phosphate buffer solution (pH 7.4) buffer solution with a Brinkman Polytron homogenizer five times for 10 sec at 5 sec intervals. The crude homogenate was subjected to centrifugation for 10 min at 1000×g, the supernatant saved, and the pellet resuspended in 9 vol. (w/v) of homogenization buffer and spun for another 10 min at 1000×g. The supernatants were combined and spun again for 30 min at 17,500×g. The resultant pellet was resuspended by homogenization in a Teflon-glass homogenizer in 10 vol. of buffer, and washed by centrifugation at 17,500×g for 30 min. The final pellet was resuspended by hand homogenization with a Teflon and glass homogenizer in buffer. The suspension was then divided into several portions and stored at -70° C.
(§3) In the table, ^3 H-QNB indicates general binding to muscarinic receptors and the lower the number, the higher is the potency. ^3 H-PZ indicates binding to muscarinic receptors and a preference for M1 receptors involved in memory and cognition. The lower the number for ^3 H-PZ the higher the potencies; the same is true for ^3 H--OXO--M which indicates agonist binding. In general, the higher the ratio of the value for ^3 H--PZ to the value for ^3 H--OXO--M the better is the agonistic characteristic.

Experiment [3] concerns muscarinic receptors linked to M1, M3, M5 receptors. The experiment can be described thus: PI Cortex: phosphoinositide turnover in the cortex (brain slices). The format is cell-based, Male Long Evans rats. Conditions: Rattus norvegicus, read-out: PI Cortex, maximal % response above baseline.
Method: Male Long Evans rats (200-300 g) were decapitated and their brains were rapidly removed and dissected according to the method of Glowinski and Iversen. […] The slices were gently agitated at 37° C. in a shaking water bath for 45 min with three changes to buffer.
Immediately before each experiment, [^3 H] inositol was purified by drying under Nz and passing a portion through a 1-ml column of Dowex AGl-X8 (formate form) to remove contaminants. […] Aliquots (25 microliters) of tissue slices were pipetted into flat-bottomed Beckman-biovials (5-ml capacity) containing 0.3 mM [^3 H]-inositol (15 Ci/mmol) and 10 mM LiCl in 245 microliters of buffer. The vials were then gassed, capped and incubated at 37° C. in a shaking water bath for 30 min. At the end of 30 min, agonist (or buffer for the determination of basal levels) was then added (30 microliters), and the incubation continued for an additional 45 min. The 45 -min incubation period was selected on the basis of the time course of labeled inositol phosphates ([^3 H]-IP's) accumulation under these conditions. The incubations were stopped by the addition of 0.94 ml of CHCl3 /MeOH (1:2, V/V) followed by 0.31 ml of CHCl3 and 0.31 ml of H2 O. The samples were mixed with vigorous shaking and spun at 1000×g for 10 min to separate organic and aqueous phases. Aliquots (750 microliter) of the upper aqueous phase were removed for determination of [^3 H]-IP's. In some cases 200 ml aliquots of the organic phase were removed, dried overnight and counted in 5 ml of scintillant (Amersham) for determination of [^3 H]-inositol incorporation into phospholipids.
Briefly, ACCELL QMA anion-exchange SEP-PAK's (Waters Associates) cartridges were converted into the formate form by washing first with 10 ml of a solution of 1.0 M-ammonium formate in 0.1 M-formic acid, followed by 20 ml of distilled water. The sample loading and solution delivery were performed by using disposable plastic syringes; an approximate flow rate of 10-15 ml/min was maintained. Total [^3 H]-IP's were determined by the "batch" method in which 750 microliter aliquots of the aqueous phase obtained as described above was diluted to 3 ml with distilled water. The entire amount was loaded on to the ACCELL QMA anion-exchange SEP-PAK cartridge. The cartridge was then washed with 10 ml of distilled water, followed by 5 mM-disodium tetraborate. Radiolabeled IP's were then eluted with 1 ml of 0.6 M-ammonium formate/0.06 M formic acid/5 mM-disodium tetraborate (pH 4.75) and 0.50 ml of this eluate was counted in 5 ml of aqueous counting scintillant.
For experiment [4], the target named is T1, M1 receptors (Rattus norvegicus, UniProt P08482).
T1 sequence (P08482 1-460): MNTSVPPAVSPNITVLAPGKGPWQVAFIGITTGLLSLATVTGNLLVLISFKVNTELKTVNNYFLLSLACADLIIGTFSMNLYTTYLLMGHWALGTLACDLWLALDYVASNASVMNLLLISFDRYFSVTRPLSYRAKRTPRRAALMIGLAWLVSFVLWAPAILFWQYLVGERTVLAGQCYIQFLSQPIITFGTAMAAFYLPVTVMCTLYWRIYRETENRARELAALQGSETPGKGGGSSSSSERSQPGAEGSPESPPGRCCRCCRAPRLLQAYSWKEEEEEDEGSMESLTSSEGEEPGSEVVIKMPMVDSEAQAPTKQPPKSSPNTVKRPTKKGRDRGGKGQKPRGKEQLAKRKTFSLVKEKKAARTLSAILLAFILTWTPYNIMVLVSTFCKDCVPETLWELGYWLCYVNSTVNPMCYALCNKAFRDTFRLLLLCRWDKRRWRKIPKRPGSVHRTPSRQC
The experiment can be described thus: Binding, competition with 3H-pirenzepine (3H-PZ) (rat brain membranes). Conditions: 1 nM 3H-pirenzepine, 1 hr room temperature, mean of three experiments. How it is done:
as §1, §2, §3

The test system of experiment [5] is M1 receptors. Description: Phosphoinositide turnover in the hippocampus (brain slices). It is filed as cell-based, Male Long Evans rats. The conditions noted are these: Rattus norvegicus, read-out: Phosphoinositide turnover in the hippocampus, maximal % response above baseline; for activation at 100 µM / activation at 50 µM: hippocampus. How it is done:
The slices were gently agitated at 37° C. in a shaking water bath for 45 min with three changes to buffer. […] The samples were mixed with vigorous shaking and spun at 1000×g for 10 min to separate organic and aqueous phases. […] Briefly, […] anion-exchange SEP-PAK's (Waters Associates) cartridges were converted into the formate form by washing first with 10 ml of a solution of 1.0 M-ammonium formate in 0.1 M-formic acid, followed by 20 ml of distilled water. The sample loading and solution delivery were performed by using disposable plastic syringes; an approximate flow rate of 10-15 ml/min was maintained. […] The entire amount was loaded on to the […] anion-exchange SEP-PAK cartridge. […] Phosphoinositide turnover in the hippocampus indicates a biological response in an area of the brain where M1 receptors predominate. Higher numbers indicate greater efficacy and selectivity at M1 receptors.

In experiment [6] the test system is muscarinic receptors. Description: Phosphoinositide (PI) response / inositol phosphate formation in brain slices (region not stated). It is filed as cell-based, Male Long Evans rats. The conditions noted are these: qualitative statement. The method, then:
The slices were gently agitated at 37° C. in a shaking water bath for 45 min with three changes to buffer.
The sample loading and solution delivery were performed by using disposable plastic syringes; an approximate flow rate of 10-15 ml/min was maintained.

For orientation: IC50 means the point on the concentration scale where inhibition reaches its midpoint. High values mean lower potency, low ones higher potency. On to `CCOC(=O)C1CN=CNC1` (centres unmarked) [Example 2, 1,4,5,6-Tetrahydro-5-ethoxycarbonylpyrimidine Hydrochloride], for which the IC50 on muscarinic receptors [1] is 1900 nM; at muscarinic receptors [2], 160 nM. The activation at 100 µM in experiment [3] came out at 150%.

On to `COC(=O)C1CCCN=C1N` (centres unmarked) [Example 15, 2-amino-3-methoxycarbonyl-3,4,5,6-tetrahydropyridine HCl], for which the IC50 on muscarinic receptors [1] was 83000 nM; at M1 receptors [4] it was 13000 nM; at muscarinic receptors [2], above 10000 nM. Besides, in experiment [3], the activation at 100 µM is -5.5%.

At muscarinic receptors [1], `C#CCOC(=O)C1CN=CNC1` (centres unmarked) [Example 6, Propynyl 1,4,5,6-Tetrahydropyrimidine-5-carboxylate Hydrochloride] displayed an IC50 of 1900 nM. In experiment [3], the activation at 100 µM was determined as 230%.

Take `Cc1noc(C2CN=CNC2)n1` (centres unmarked) [Example 9, 1,4,5,6-Tetrahydro-5-(3-methyl-1,2,4-oxadiazol-5-yl)pyrimidine trifluoroacetate]: the values for the concentration for half-maximal inhibition (IC50) at muscarinic receptors [1] and at muscarinic receptors [2] were 2000 nM and 26 nM, respectively. Also, the activation at 100 µM stood at 700% in experiment [3] and 704% in the experiment on M1 receptors [5].

Turning to `COC(=O)C1CCCC(N)=N1` (centres unmarked) [Example 17, 2-Amino-6-methoxycarbonyl-3,4,5,6-tetrahydropyridine HCL], the IC50 at muscarinic receptors [1] is 130000 nM; on M1 receptors [4], above 10000 nM; at muscarinic receptors [2], above 10000 nM. The activation at 100 µM in experiment [3] turned out to be 5.9%.

Take `CC(=O)OC1CN=C(C(F)(F)F)NC1.Cl` (centres unmarked) [Example 18, 5-Acetoxy-2-trifluoromethyl-1,4,5,6-tetrahydropyrimidine HCl]: the results for the IC50 on muscarinic receptors [1], on M1 receptors [4] and at muscarinic receptors [2] were 8700 nM, above 10000 nM and above 10000 nM, respectively. For the same compound, in the experiment with M1 receptors [5], the activation at 50 µM is 0%. Besides, in the experiment with muscarinic receptors [6], the “PI response (in words)” value is on record as “no PI response”.

`COC(=O)C1CN=CNC1` (centres unmarked) [Example 1, 1,4,5,6-Tetrahydro-5-methoxycarbonylpyrimidine Hydrobromide] showed an IC50 at muscarinic receptors [2] of 90 nM. For the same compound, the activation at 100 µM in experiment [3] is 131%. Besides, the activation at 1000 µM in the experiment with M1 receptors [5] turned out to be 237%.

`COC(=O)C1CCC(N)=NC1.Cl` (centres unmarked) [Example 14, 2-Amino-5-methoxycarbonyl-3,4,5,6-tetrahydropyridine HCl]: the IC50 on muscarinic receptors [1] came out at 7300 nM; on M1 receptors [4] it was 770 nM; on muscarinic receptors [2], 114 nM. In experiment [3], the activation at 100 µM is 265%. The “PI response (in words)” value in the experiment on muscarinic receptors [6] is “unexpectedly superior PI response”.

On to `O=C(OCc1ccccc1)C1CN=CNC1` (centres unmarked) [Example 5, Benzyl 1,4,5,6-Tetrahydropyrimidine-5-carboxylate Hydrochloride], for which the figures for the 50% inhibitory concentration (IC50) on muscarinic receptors [1], at M1 receptors [4] and on muscarinic receptors [2] were around 1000 nM, 1260 nM and 1090 nM, respectively. In addition, the activation at 100 µM in experiment [3] came out at 3.5%.

For `COC(=O)C1CCN=C(N)C1` (centres unmarked) [Example 16, 2-Amino-4-methoxycarbonyl-3,4,5,6-tetrahydropyridine HCL], at muscarinic receptors [1], the IC50 came to 130000 nM. Besides, the activation at 100 µM in experiment [3] was determined as 9%.

Turning to `CCCOC(=O)C1CN=CNC1` (centres unmarked) [Example 3, n-Propyl 1,4,5,6-Tetrahydropyrimidine-5-carboxylate Hydrochloride], the IC50 at muscarinic receptors [1] came out at 2100 nM; at M1 receptors [4], 1330 nM; at muscarinic receptors [2], 1080 nM. Further, the activation at 100 µM in experiment [3] is 7.1%.

As for `CC(=O)OC1CN=CNC1.Cl` (centres unmarked) [Example 10, 5-Acetoxy-1,4,5,6-tetrahydropyrimidine HCl], the IC50 turned out to be 31600 nM at muscarinic receptors [1], 10000 nM on M1 receptors [4] and 640 nM at muscarinic receptors [2]. Besides, in the experiment with muscarinic receptors [1], the “binding to muscarinic receptors (in words)” value is “acceptable binding data”. In the experiment on M1 receptors [5], the activation at 100 µM is 70%. For the same compound, the “PI response (in words)” value in the experiment with muscarinic receptors [6] is “efficacious with respect to the PI response”.

As to `CC(=O)OC1CN=C(C)NC1` (centres unmarked) [Example 19, 2-methyl-5-acetoxy-1,4,5,6-tetrahydropyrimidine], the results for the IC50 at muscarinic receptors [1], at M1 receptors [4] and at muscarinic receptors [2] were 100000 nM, above 10000 nM and above 10000 nM, respectively. Also, the “binding to muscarinic receptors (in words)” value in the experiment with muscarinic receptors [1] is “extremely poor binding to muscarinic receptors”. The activation at 50 µM in the experiment with M1 receptors [5] worked out at 0%. Also, in the experiment on muscarinic receptors [6], the “PI response (in words)” value is listed as “virtually no PI response”.

For the compound `COC(=O)C1=CNCN(C)C1` [Example 11, 1-Methyl-5-methoxycarbonyl-1,2,3,6-tetrahydropyrimidine HCl], the half-inhibitory concentration (IC50) came to 25100 nM on muscarinic receptors [1], 15000 nM on M1 receptors [4] and 2400 nM at muscarinic receptors [2]. Besides, the activation at 1000 µM in experiment [3] (dose 1 mM) came out at 182%.

Take `CC(C)OC(=O)C1CN=CNC1` (centres unmarked) [Example 4, Isopropyl 1,4,5,6-Tetrahydropyrimidine-5-carboxylate Hydrochloride]: the IC50 on muscarinic receptors [1] is 3500 nM; at muscarinic receptors [2], 1760 nM. Moreover, the activation at 100 µM in experiment [3] worked out at 7.2%.
